Assay results reported in ChEMBL document CHEMBL6071148, “Synthesis and biological evaluation of novel 3,6- amide and thioamide substituted- 2,3,4,9-tetrahydro-1H-carbazoles for anti-cancer activity” (Eur J Med Chem, 2024).
The source made the active and inactive calls. The rule behind the calls is not given here.

Tests used:
Human papillomavirus = assay: Antiviral activity against Human papillomavirus; format: functional, organism-based
A549 [1] = assay: Cytotoxicity against human A549 cells assessed as inhibition of cell proliferation incubated for 72 hrs by MTT assay; format: functional, cell-based; conditions: A549, 72 h
MCF7 [2] = assay: Cytotoxicity against human MCF7 cells assessed as inhibition of cell proliferation incubated for 72 hrs by MTT assay; format: functional, cell-based; conditions: MCF7, 72 h
[3] = Cytotoxicity against human MRC5 cells assessed as inhibition of cell proliferation incubated for 72 hrs by MTT assay; format: toxicity, cell-based
HCT-116 [4] = assay: Cytotoxicity against human HCT-116 cells assessed as inhibition of cell proliferation incubated for 72 hrs by MTT assay; format: functional, cell-based; conditions: HCT-116, 72 h
A549 [5] = assay: Induction of cell cycle arrest in human A549 cells assessed as accumulation of cells at G1 phase at IC50 incubated for 24 hrs by PI staining based flow cytometric analysis (reference value: 37.40 +/- 2.40%); format: functional
MCF7 [6] = assay: Induction of cell cycle arrest in human MCF7 cells assessed as accumulation of cells at G1 phase at IC50 incubated for 24 hrs by PI staining based flow cytometric analysis relative to control; format: functional
A549 [7] = assay: Induction of DNA damage in human A549 cells assessed as gammaH2AX positive cells at IC50 incubated for 48 hrs by PI staining based flow cytometric analysis (reference value: 4.90 +/- 0.50%); format: functional
MCF7 [8] = assay: Induction of cell cycle arrest in human MCF7 cells assessed as accumulation of cells at S phase at IC50 incubated for 24 hrs by PI staining based flow cytometric analysis relative to control; format: functional
A549 [9] = assay: Induction of cell cycle arrest in human A549 cells assessed as accumulation of cells at G2 phase at IC50 incubated for 24 hrs by PI staining based flow cytometric analysis (reference value: 23.45 +/- 1.62%); format: functional
MCF7 [10] = assay: Induction of apoptosis in human MCF7 cells assessed as increase in apoptotic cells incubated for 24 hrs by Annexin-V and 7-AAD staining based flow cytometric analysis (reference value: 5.70 +/- 1.56%); format: functional
A549 [11] = assay: Induction of cell cycle arrest in human A549 cells assessed as accumulation of cells at G2 phase at IC50 incubated for 48 hrs by PI staining based flow cytometric analysis (reference value: 38.15 +/- 1.80%); format: functional
HCT-116 [12] = assay: Induction of apoptosis in human HCT-116 cells assessed as increase in apoptotic cells incubated for 48 hrs by Annexin-V and 7-AAD staining based flow cytometric analysis (reference value: 6.82 +/- 1.05%); format: functional
HCT-116 [13] = assay: Induction of cell cycle arrest in human HCT-116 cells at IC50 incubated for 48 hrs by PI staining based flow cytometric analysis; format: functional
MCF7 [14] = assay: Induction of DNA damage in human MCF7 cells assessed as gammaH2AX positive cells at IC50 incubated for 48 hrs by PI staining based flow cytometric analysis (reference value: 7.58 +/- 1.23%); format: functional
HCT-116 [15] = assay: Induction of apoptosis in human HCT-116 cells assessed as increase in apoptotic cells incubated for 24 hrs by Annexin-V and 7-AAD staining based flow cytometric analysis (reference value: 8.10 +/- 2.16%); format: functional
MCF7 [16] = assay: Induction of cell cycle arrest in human MCF7 cells assessed as accumulation of cells at G2 phase at IC50 incubated for 24 hrs by PI staining based flow cytometric analysis relative to control; format: functional
A549 [17] = assay: Induction of apoptosis in human A549 cells assessed as apoptotic rate at IC50 incubated for 48 hrs by Annexin-V and 7-AAD staining based flow cytometric analysis (reference value: 6.56 +/- 1.17%); format: functional
MCF7 [18] = assay: Induction of apoptosis in human MCF7 cells assessed as increase in apoptotic cells incubated for 48 hrs by Annexin-V and 7-AAD staining based flow cytometric analysis (reference value: 7.53 +/- 1.16%); format: functional
HCT-116 [19] = assay: Induction of DNA damage in human HCT-116 cells assessed as gammaH2AX positive cells at IC50 incubated for 48 hrs by PI staining based flow cytometric analysis (reference value: 6.24 +/- 1.94%); format: functional
A549 [20] = assay: Induction of apoptosis in human A549 cells assessed as apoptotic rate at IC50 incubated for 24 hrs by Annexin-V and 7-AAD staining based flow cytometric analysis (reference value: 4.56 +/- 0.81%); format: functional
HCT-116 [21] = assay: Induction of cell cycle arrest in human HCT-116 cells assessed as accumulation of cells at G2 phase at IC50 incubated for 24 hrs by PI staining based flow cytometric analysis relative to control; format: functional
A549 [22] = assay: Induction of cell cycle arrest in human A549 cells assessed as accumulation of cells at G1 phase at IC50 incubated for 48 hrs by PI staining based flow cytometric analysis (reference value: 53.5 +/- 4.01%); format: functional

Row | Compound | IC50 (A549 [1]) [µM] | IC50 (MCF7 [2]) [µM] | IC50 at 72 h [3] [µM] | IC50 (HCT-116 [4]) [µM] | also measured
1 | O=C(N[C@@H]1CCCc2c1[nH]c1ccc(Cl)cc21)c1ccccn1 | – | – | – | – | IC50 (Human papillomavirus): 0.005 µM
2 | CC(=O)Nc1ccc2[nH]c3c(c2c1)CC(NC(=O)OC(C)(C)C)CC3 (configuration not stated) | > 50 | > 50 | > 50 | > 50 | –
3 | CC(=O)Nc1ccc2[nH]c3c(c2c1)CC(NC(C)=O)CC3 (configuration not stated) | > 50 | > 50 | > 50 | > 50 | –
4 | CC(=O)Nc1ccc2[nH]c3c(c2c1)CC(NC(=O)c1cc2ccccc2[nH]1)CC3 (configuration not stated) | > 50 | > 50 | > 50 | > 50 | –
5 | CCc1ccc(C(=O)NC2CCc3[nH]c4ccc(NC(C)=O)cc4c3C2)o1 (configuration not stated) | > 50 | > 50 | > 50 | > 50 | –
6 | O=C1c2c(O)ccc(O)c2C(=O)c2c(NCCNCCO)ccc(NCCNCCO)c21 [MITOXANTRONE] | 0.164 | 0.018 | 0.517 | 0.127 | Activity (A549 [5]): 34.62%; Activity (MCF7 [6]): 44.4%; Activity (A549 [7]): 14.22%; Activity (MCF7 [8]): 17.9%; Activity (A549 [9]): 20.2%; Activity (MCF7 [10]): 11.55%; Activity (A549 [11]): 29.8%; Activity (HCT-116 [12]): 31.1%; Activity (HCT-116 [13]): Active; Activity (MCF7 [14]): 23.01%; Activity (HCT-116 [15]): 32.01%; Activity (MCF7 [16]): 33.2%; Activity (A549 [17]): 32.27%; Activity (MCF7 [18]): 67.63%; Activity (HCT-116 [19]): 32.47%; Activity (A549 [20]): 30.26%; Activity (HCT-116 [21]): 26.3%; Activity (A549 [22]): 48.61%
7 | CC(=O)NC1CCc2[nH]c3ccc(S(N)(=O)=O)cc3c2C1 (configuration not stated) | > 50 | > 50 | > 50 | > 50 | –
8 | CC(=O)Nc1ccc2[nH]c3c(c2c1)CC(NC(=O)c1ccccc1)CC3 (configuration not stated) | > 50 | > 50 | > 50 | > 50 | –
